Test results reported in patent publication US20140135270A1, “MACROCYCLIC COMPOUNDS FOR INHIBITION OF INHIBITORS OF APOPTOSIS” (Ensemble Therapeutics Corp., priority 2012, published 2014).

Tests used:
[1] = biological target: T1, His-BIR2-3 (125-356, C202A/C213G, XIAP) (Homo sapiens, UniProt P98170, C202A/C213G); test: XIAP-BIR2-3 Dimeric SMAC Peptide Homogeneous Time Resolved Fluorescence (HTRF) Assay; format: binding; conditions: fluorescein labeled dimeric SMAC peptide
T1 construct: additions of His-BIR2-3 (125-356, C202A/C213G, XIAP), fluorescein labeled dimeric SMAC peptide
T1 sequence (P98170 125-356 C202A/C213G): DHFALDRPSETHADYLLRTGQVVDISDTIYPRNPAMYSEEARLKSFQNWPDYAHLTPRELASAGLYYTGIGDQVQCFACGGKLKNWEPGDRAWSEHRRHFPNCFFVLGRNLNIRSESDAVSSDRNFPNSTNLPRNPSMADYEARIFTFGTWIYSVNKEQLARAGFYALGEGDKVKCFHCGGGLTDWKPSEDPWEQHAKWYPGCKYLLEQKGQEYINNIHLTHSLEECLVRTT

[2] = biological target: T2, His-BIR3 (241-356, XIAP) (Homo sapiens, UniProt P98170); test: XIAP-BIR3/SMAC Homogeneous Time Resolved Fluorescence (HTRF) Assay; format: binding; conditions: fluorescein labeled SMAC peptide
T2 construct: additions of His-BIR3 (241-356, XIAP), fluorescein labeled SMAC peptide
T2 sequence (P98170 241-356): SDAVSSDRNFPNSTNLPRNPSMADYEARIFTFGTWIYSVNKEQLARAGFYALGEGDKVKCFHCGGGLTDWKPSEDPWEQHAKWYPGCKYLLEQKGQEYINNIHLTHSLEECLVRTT

Question: What does the source list for `CN[C@@H](C)C(=O)N[C@H](C(=O)N[C@H]1C/C=C/COc2ccc(cc2)C[C@@H](C(=O)O)NC(=O)[C@H](Cc2ccc3ccccc3c2)NC(=O)[C@@H]2CN(CCN2C(=O)[C@@H](NC(=O)[C@H](C)NC)C(C)(C)C)C(=O)CNC(=O)CC[C@@H](C(=O)O)NC(=O)[C@H](Cc2ccc3ccccc3c2)NC1=O)C(C)(C)C` [Example 78]?
Answer: IC50 [1]: 4.7 nM; IC50 [2]: 82.4 nM

Question: Which IC50 [1] does the source give for `CN[C@@H](C)C(=O)N[C@H](C(=O)N1C[C@@H]2C[C@H]1C(=O)N[C@@H](Cc1ccc3ccccc3c1)C(=O)N[C@H](C(=O)O)Cc1ccc(cc1)OC/C=C/CO[C@H]1C[C@@H](C(=O)N[C@@H](Cc3cccc(-c4ccc(CO)cc4)c3)C(=O)N[C@H](C(=O)NS(=O)(=O)C3CC3)Cc3ccc(cc3)OCc3cn2nn3)N(C(=O)[C@@H](NC(=O)[C@H](C)NC)C(C)(C)C)C1)C(C)(C)C` [Example 117] here?
Answer: 11.3 nM

Question: What about the IC50 [2] of the same compound?
Answer: 9.4 nM

Question: What does the source list for `CN[C@@H](C)C(=O)N[C@H](C(=O)N1C[C@@H]2C[C@H]1C(=O)N[C@@H](Cc1ccc3ccccc3c1)C(=O)N[C@H](C(=O)O)Cc1ccc(cc1)C(=O)N[C@H]1C[C@@H](C(=O)N[C@@H](Cc3ccc4ccccc4c3)C(=O)N[C@H](C(=O)O)Cc3ccc(cc3)C(=O)N2)N(C(=O)[C@@H](NC(=O)[C@H](C)NC)C(C)(C)C)C1)C(C)(C)C` [Example 85]?
Answer: IC50 [1]: 2.5 nM; IC50 [2]: 16.8 nM

Question: How did the IC50 [1] turn out when `CN[C@@H](C)C(=O)N[C@H](C(=O)N1C[C@@H]2C[C@H]1C(=O)N[C@@H](Cc1ccc3ccccc3c1)C(=O)N[C@H](C(=O)O)Cc1ccc(cc1)CCCC[C@H]1C[C@@H](C(=O)N[C@@H](Cc3ccc4ccccc4c3)C(=O)N[C@H](C(=O)NS(=O)(=O)C3CC3)Cc3ccc(cc3)OCc3cn2nn3)N(C(=O)[C@@H](NC(=O)[C@H](C)NC)C(C)(C)C)C1)C(C)(C)C` [Example 119] was run?
Answer: 3.4 nM

Question: What about the IC50 [2] of the same compound?
Answer: 2.8 nM

Question: `CN[C@@H](C)C(=O)N[C@H](C(=O)N1C[C@@H]2C[C@H]1C(=O)N[C@@H](C)C(=O)N[C@H](C(=O)NS(=O)(=O)C1CC1)Cc1ccc(cc1)OCc1cn(nn1)[C@H]1C[C@@H](C(=O)N[C@@H](Cc3ccc4ccccc4c3)C(=O)N[C@H](C(=O)O)Cc3ccc(cc3)OC/C=C/CO2)N(C(=O)[C@@H](NC(=O)[C@H](C)NC)C(C)(C)C)C1)C(C)(C)C` [Example 103] was tested. Which IC50 [1] did it give?
Answer: 2.9 nM

Question: What about the IC50 [2] of the same compound?
Answer: 67.2 nM

Question: Which results are given for `CN[C@@H](C)C(=O)N[C@H](C(=O)N1C[C@@H]2C[C@H]1C(=O)N[C@@H](Cc1ccc3ccccc3c1)C(=O)NC(C(=O)O)Cc1ccc(cc1)OC/C=C/CO[C@H]1C[C@@H](C(=O)N[C@@H](Cc3ccc4ccccc4c3)C(=O)N[C@H](C(=O)O)Cc3ccc(cc3)O2)N(C(=O)[C@@H](NC(=O)[C@H](C)NC)C(C)(C)C)C1)C(C)(C)C` (stereo partly shown) [Example 84]?
Answer: IC50 [1]: 1.3 nM; IC50 [2]: 2.9 nM

Question: For `CN[C@@H](C)C(=O)N[C@H](C(=O)N1C[C@@H]2C[C@H]1C(=O)N[C@@H](Cc1ccc3ccccc3c1)C(=O)N[C@H](C(=O)O)Cc1ccc(cc1)C(=O)N[C@H]1C[C@@H](C(=O)N[C@@H](Cc3ccc4ccccc4c3)C(=O)N[C@H](C(=O)O)Cc3ccc(cc3)OC/C=C/CO2)N(C(=O)[C@@H](NC(=O)[C@H](C)NC)C(C)(C)C)C1)C(C)C` [Example 75], which IC50 [1] is on record?
Answer: 1.7 nM

Question: And the IC50 [2]?
Answer: 9.7 nM

Question: What does the source list for `CNC(C)C(=O)NC(C(=O)N1CC2CC1C(=O)NC(Cc1ccc3ccccc3c1)C(=O)NC(C(=O)O)Cc1ccc(cc1)OCc1cn(nn1)C1CC(C(=O)NC(Cc3ccc4ccccc4c3)C(=O)NC(C(=O)O)Cc3ccc(cc3)OCC=CCO2)N(C(=O)C(NC(=O)C(C)NC)C(C)(C)C)C1)C(C)(C)C` (stereo not shown) [Example 4]?
Answer: IC50 [1]: 0.7 nM; IC50 [2]: 4.1 nM

Question: `CN[C@@H](C)C(=O)N[C@H](C(=O)N1C[C@@H]2C[C@H]1C(=O)NC(Cc1ccc3ccccc3c1)C(=O)N[C@H](C(=O)O)CCCCOC/C=C/C[C@H]1C[C@@H](C(=O)N[C@@H](Cc3ccc4ccccc4c3)C(=O)N[C@H](C(=O)O)Cc3ccc(cc3)OCc3cn2nn3)N(C(=O)[C@@H](NC(=O)[C@H](C)NC)C(C)(C)C)C1)C(C)(C)C` (stereo partly shown) [Example 96] was tested. Which IC50 [1] did it give?
Answer: 1 nM

Question: What about the IC50 [2] of the same compound?
Answer: 7.1 nM

Question: For `CN[C@@H](C)C(=O)N[C@H](C(=O)N1C[C@@H]2C[C@H]1C(=O)N[C@@H](Cc1ccc3ccccc3c1)C(=O)N[C@H](C(=O)O)Cc1ccc(cc1)OC/C=C/CO[C@H]1C[C@@H](C(=O)N[C@@H](C(c3ccccc3)c3ccccc3)C(=O)N[C@H](C(=O)NS(=O)(=O)C3CC3)Cc3ccc(cc3)OCc3cn2nn3)N(C(=O)[C@@H](NC(=O)[C@H](C)NC)C(C)(C)C)C1)C(C)(C)C` [Example 104], which IC50 [1] is on record?
Answer: 8.7 nM

Question: And the IC50 [2]?
Answer: 105 nM

Question: With `CN[C@@H](C)C(=O)NC(C(=O)N1C[C@H]2CCCCOc3ccc(cc3)C[C@@H](c3n[nH]c(=O)o3)NC(=O)C(Cc3ccc4ccccc4c3)NC(=O)[C@@H]3C[C@@H](CN3C(=O)[C@@H](NC(=O)[C@H](C)NC)C(C)(C)C)n3cc(nn3)COc3ccc(cc3)C[C@@H](C(=O)O)NC(=O)[C@H](Cc3ccc4ccccc4c3)NC(=O)[C@@H]1C2)C(C)(C)C` (stereo partly shown) [Example 92] as the compound, how does the IC50 [1] read?
Answer: 0.9 nM

Question: And the IC50 [2]?
Answer: 2.9 nM

Question: Which IC50 [1] does the source give for `CN[C@@H](C)C(=O)N[C@H](C(=O)N1CC[C@H]2OCc3cn(nn3)-c3ccc(cc3)C[C@@H](C(=O)O)NC(=O)[C@H](Cc3ccc4ccccc4c3)NC(=O)[C@@H]3C[C@@H](CN3C(=O)[C@@H](NC(=O)[C@H](C)NC)C(C)(C)C)OC/C=C/COc3ccc(cc3)C[C@@H](C(=O)O)NC(=O)[C@H](Cc3ccc4ccccc4c3)NC(=O)[C@H]21)C(C)(C)C` [Example 12] here?
Answer: 1.2 nM

Question: What about the IC50 [2] of the same compound?
Answer: 1.2 nM

Question: How did the IC50 [1] turn out when `CN[C@@H](C)C(=O)N[C@H](C(=O)N1C[C@@H]2C[C@H]1C(=O)N[C@@H](Cc1ccc3ccccc3c1)C(=O)N[C@H](C(=O)O)Cc1ccc(cc1)OC/C=C/CO[C@H]1C[C@@H](C(=O)N[C@@H](c3ccccc3)C(=O)N[C@H](C(=O)O)Cc3ccc(cc3)C(=O)N2)N(C(=O)[C@@H](NC(=O)[C@H](C)NC)C(C)(C)C)C1)C(C)(C)C` [Example 53] was run?
Answer: 2.5 nM

Question: And the IC50 [2]?
Answer: 47.4 nM

Question: Which IC50 [1] does the source give for `CNC(C)C(=O)NC(C(=O)N1CC2CC1C(=O)NC(Cc1ccc3ccccc3c1)C(=O)NC(C(=O)O)Cc1ccc(cc1)OCC=CCOC1CC(C(=O)NC(Cc3ccc4ccccc4c3)C(=O)NC(C(=O)O)Cc3ccc(cc3)CC(=O)N2)N(C(=O)C(NC(=O)C(C)NC)C(C)(C)C)C1)C(C)(C)C` (stereo not shown) [Example 30] here?
Answer: 1.1 nM

Question: What about the IC50 [2] of the same compound?
Answer: 7.5 nM

Question: Which results are given for `CN[C@@H](C)C(=O)N[C@H](C(=O)N1C[C@@H]2C[C@H]1C(=O)NC(Cc1ccc3ccccc3c1)C(=O)N[C@H](c1nnn[nH]1)Cc1ccc(cc1)OC/C=C/C[C@H]1C[C@@H](C(=O)N[C@@H](Cc3ccc4ccccc4c3)C(=O)N[C@H](C(=O)O)Cc3ccc(cc3)OCc3cn2nn3)N(C(=O)[C@@H](NC(=O)[C@H](C)NC)C(C)(C)C)C1)C(C)(C)C` (stereo partly shown) [Example 93]?
Answer: IC50 [1]: 0.4 nM; IC50 [2]: 0.8 nM

Question: With `CN[C@@H](C)C(=O)N[C@H](C(=O)N1CC[C@H]2OC/C=C/COc3ccc(cc3)C[C@@H](C(=O)O)NC(=O)[C@H](Cc3ccc4ccccc4c3)NC(=O)[C@@H]3[C@@H](CCN3C(=O)[C@@H](NC(=O)[C@H](C)NC)C(C)(C)C)OCc3cn(nn3)[C@H](C(=O)O)CCNC(=O)[C@H](Cc3ccc4ccccc4c3)NC(=O)[C@H]21)C(C)(C)C` [Example 14] as the compound, how does the IC50 [1] read?
Answer: 3.7 nM

Question: What about the IC50 [2] of the same compound?
Answer: 17 nM

Question: With `CN[C@@H](C)C(=O)N[C@H](C(=O)N1C[C@@H]2C[C@H]1C(=O)N[C@@H](Cc1ccc3ccccc3c1)C(=O)N[C@H](C(=O)O)CCC(=O)N[C@H]1C[C@@H](C(=O)N[C@@H](Cc3ccc4ccccc4c3)C(=O)N[C@H](C(=O)O)Cc3ccc(cc3)OC/C=C/CO2)N(C(=O)[C@@H](NC(=O)[C@H](C)NC)C(C)(C)C)C1)[C@H](C)O` [Example 57] as the compound, how does the IC50 [1] read?
Answer: 12.1 nM

Question: What about the IC50 [2] of the same compound?
Answer: 201 nM

Question: How did the IC50 [1] turn out when `CN[C@@H](C)C(=O)N[C@H](C(=O)N1C[C@@H]2C[C@H]1C(=O)N[C@@H](Cc1ccc3ccccc3c1)C(=O)N[C@H](C(=O)O)Cc1ccc(cc1)OCc1cn(nn1)[C@H]1C[C@@H](C(=O)N[C@@H](Cc3ccc4ccccc4c3)C(=O)N[C@H](C(=O)NS(=O)(=O)C3CC3)Cc3ccc(cc3)OCCCCO2)N(C(=O)[C@@H](NC(=O)[C@H](C)NC)C(C)(C)C)C1)C(C)(C)C` [Example 122] was run?
Answer: 11.3 nM

Question: What about the IC50 [2] of the same compound?
Answer: 12.9 nM

Question: `CC[C@H](NC(=O)[C@H](C)NC)C(=O)N1C[C@@H]2C[C@H]1C(=O)N[C@@H](c1ccccc1)C(=O)N[C@H](C(=O)O)Cc1ccc(cc1)C(=O)N[C@H]1C[C@@H](C(=O)N[C@@H](Cc3ccc4ccccc4c3)C(=O)N[C@H](C(=O)O)Cc3ccc(cc3)OC/C=C/CO2)N(C(=O)[C@@H](NC(=O)[C@H](C)NC)C(C)(C)C)C1` [Example 52] was tested. Which IC50 [2] did it give?
Answer: 77.8 nM

Question: Which IC50 [2] does the source give for `CC[C@H](NC(=O)[C@H](C)NC)C(=O)N1C[C@@H]2C[C@H]1C(=O)N[C@@H](c1ccccc1)C(=O)N[C@H](C(=O)O)Cc1ccc(cc1)C(=O)N[C@H]1C[C@@H](C(=O)N[C@@H](Cc3ccc4ccccc4c3)C(=O)N[C@H](C(=O)O)Cc3ccc(cc3)OC/C=C/CO2)N(C(=O)[C@@H](NC(=O)[C@H](C)NC)C(C)(C)C)C1` [Example 54] here?
Answer: 60.3 nM

Question: For `CN[C@@H](C)C(=O)N[C@H](C(=O)N1C[C@@H]2C[C@H]1C(=O)N[C@@H](Cc1ccc3ccccc3c1)C(=O)N[C@H](C(=O)O)Cc1ccc(cc1)C(=O)N[C@H]1C[C@@H](C(=O)N[C@@H](Cc3ccc4ccccc4c3)C(=O)N[C@H](C(=O)O)Cc3ccc(cc3)OC/C=C/CO2)N(C(=O)[C@@H](NC(=O)[C@H](C)NC)C(C)(C)C)C1)C1CCNCC1` [Example 67], which IC50 [2] is on record?
Answer: 20 nM

Question: Which IC50 [2] does the source give for `CN[C@@H](C)C(=O)N[C@H](C(=O)N1C[C@@H]2C[C@H]1C(=O)N[C@@H](Cc1ccc3ccccc3c1)C(=O)N[C@H](C(=O)O)Cc1ccc(cc1)C(=O)N[C@H]1C[C@@H](C(=O)N[C@@H](Cc3ccc4ccccc4c3)C(=O)N[C@H](C(=O)O)Cc3ccc(cc3)OC/C=C/CO2)N(C(=O)[C@@H](NC(=O)[C@H](C)NC)C(C)(C)C)C1)C1CCNCC1` [Example 74] here?
Answer: 7.1 nM
